Experimental data reported in article PMC9224258, “Zinc Coordination Compounds with Benzimidazole Derivatives: Synthesis, Structure, Antimicrobial Activity and Potential Anticancer Application” (International Journal of Molecular Sciences, 2022).
Converted amounts (≈) assume the structure as drawn. Like-named read-outs stand apart in the source and are kept apart here. Each block holds one compound with its values, some of them ahead of it.

Legend:
C. glabrata ATCC 2091 = test: micro-dilution broth MIC; assay type: cell-based
[1] = test system: S. epidermidis ATCC 12228; test: micro-dilution broth MIC; assay type: cell-based, Staphylococcus epidermidis; conditions: S. epidermidis ATCC 12228, Gram-positive
Method: (§1) The cytotoxic effect of the compounds was evaluated using glioblastoma (T98G), neuroblastoma (SK-N-AS) and lung adenocarcinoma (A549) cell lines and human normal skin fibroblasts (CCD-1059Sk). T98G and SK-N-AS cells were cultured in DMEM, high glucose; A549 cells were cultured in DMEM/F12; and CCD-1059Sk cells were cultured in MEM. All media were supplemented with 10% FBS, 100 U/mL of penicillin and […] of streptomycin (PenStrep). Cells were incubated at 37 °C in a humidified atmosphere of 5% CO2. Stock solutions were prepared by dissolving the compounds in sterile dimethyl sulfoxide (DMSO) to obtain the concentration of 50 mg/mL. The cells were seeded into 96-well sterile plates (Nunc) at a density of 1 × 10^5 cells/mL. After 24 h of incubation, the medium was removed from each well, and then cells were incubated for the next 24 h with different concentrations of the tested compounds (1–100 µg/mL) in respective medium containing 2% FBS. Cytotoxicity of the compounds was evaluated using the MTT assay, which is based on the conversion of 3-(4,5-dimethylthiazol-2-yl)-2,5-diphenyltetrazolium bromide (MTT) into dark-blue formazan crystals. Briefly, after 24 h incubation of cells with varying concentrations of the tested compounds, all culture media were removed from the plates. Cells were washed with PBS, and then 100 µL of medium containing 10% MTT solution (5 mg/mL) was added to each well. After 3 h incubation, 100 µL (per well) of 10% SDS buffer solution was added to solubilize formazan crystals. After overnight incubation, the absorbance was measured at 570 nm using a microplate reader (Epoch, BioTek Instruments). Experiments were repeated twice, and the measurements in each experiment were run in triplicate. The viability of the investigated cells was expressed as a percentage of the viability of the untreated cells, and the results were transformed into IC50 values (expressed as mean ± SD). […] The complexes were screened for antibacterial and antifungal activities by micro-dilution broth method using Mueller–Hinton broth for growth of bacteria or Mueller–Hinton broth with 2% glucose for growth of fungi. Minimal inhibitory concentrations (MICs) of the tested derivatives were evaluated for the panel of the reference microorganisms from the American Type Culture Collection (ATCC), including Gram-negative bacteria (Escherichia coli ATCC 25922, Salmonella Typhimurium ATCC14028, Klebsiella pneumoniae ATCC 13883, Pseudomonas aeruginosa ATCC 9027, Proteus mirabilis ATCC 12453), Gram-positive bacteria (Staphylococcus aureus ATCC 25923, Staphylococcus epidermidis ATCC 12228, Micrococcus luteus ATCC 10240, Enterococcus faecalis ATCC 29212, Bacillus subtilis ATCC 6633, Bacillus cereus ATCC 10876) and fungi (Candida albicans ATCC 10231, Candida parapsilosis ATCC 22019, C. glabrata ATCC 90030).

P. mirabilis ATCC 12453 = test: micro-dilution broth MIC; assay type: cell-based, Proteus mirabilis
Method: as §1

K. pneumoniae ATCC 13883 = test: micro-dilution broth MIC; assay type: cell-based, Klebsiella pneumoniae
Method: as §1

E. faecalis ATCC 29212 = test: micro-dilution broth MIC; assay type: cell-based, Enterococcus faecalis; conditions: E. faecalis ATCC 29212, Gram-positive
Method: as §1

[2] = test system: S. typhimurium ATCC 14028; test: micro-dilution broth MIC; assay type: cell-based, Salmonella Typhimurium; conditions: Gram-negative
Method: as §1

[3] = test system: human normal skin fibroblasts (CCD-1059Sk); test: MTT cytotoxicity assay, normal fibroblasts; assay type: cell-based; conditions: MTT assay after 24 h incubation, normal cells; for IC50: Homo sapiens, CCD-1059Sk, read-out: IC50 ± SD, CCD-1059-Sk
Method: as §1

B. cereus ATCC 10876 = test: micro-dilution broth MIC; assay type: cell-based, Bacillus cereus; conditions: B. cereus ATCC 10876, Gram-positive
Method: as §1

B. subtilis ATCC 6633 = test: micro-dilution broth MIC; assay type: cell-based, Bacillus subtilis; conditions: B. subtilis ATCC 6633, Gram-positive
Method: as §1

P. aeruginosa ATCC 9027 = test: micro-dilution broth MIC; assay type: cell-based, Pseudomonas aeruginosa
Method: as §1

M. luteus ATCC 10240 = test: micro-dilution broth MIC; assay type: cell-based, Micrococcus luteus; conditions: M. luteus ATCC 10240, Gram-positive
Method: as §1

S. aureus ATCC 25923 = test: micro-dilution broth MIC; assay type: cell-based, Staphylococcus aureus; conditions: S. aureus ATCC 25923, Gram-positive
Method: as §1

[4] = test system: glioblastoma (T98G) cell line; test: MTT cytotoxicity assay, T98G; assay type: cell-based; conditions: MTT assay after 24 h incubation; for IC50: Homo sapiens, T98G, read-out: IC50 ± SD, T98G
Method: as §1

[5] = test system: lung adenocarcinoma (A549) cell line; test: MTT cytotoxicity assay, A549; assay type: cell-based, human; conditions: MTT assay after 24 h incubation; for IC50: Homo sapiens, A549, read-out: IC50 ± SD, A549
Method: as §1

C. albicans ATCC 102231 = test: micro-dilution broth MIC; assay type: cell-based, Candida albicans
Method: as §1

E. coli ATCC 25922 = test: micro-dilution broth MIC; assay type: cell-based, Escherichia coli
Method: as §1

[6] = test system: neuroblastoma (SK-N-AS) cell line; test: MTT cytotoxicity assay, SK-N-AS; assay type: cell-based, human; conditions: MTT assay after 24 h incubation; for IC50: Homo sapiens, SK-N-AS, read-out: IC50 ± SD, SK-N-AS
Method: as §1

[7] = test system: C. parapsilosis ATCC 22019; test: micro-dilution broth MIC; assay type: cell-based, Candida parapsilosis
Method: as §1

[8] = test system: lung adenocarcinoma (A549) cell line; design: method as in earlier work; conditions: incubated for 24 h with A549 cells; ref 77 (Zhang F. et al.); cited from earlier work

MIC (C. glabrata ATCC 2091; yeast): >1000 µg/mL | MIC [1]: 1000 µg/mL | MIC (P. mirabilis ATCC 12453; Gram-negative): >1000 µg/mL | MIC (K. pneumoniae ATCC 13883; Gram-negative): >1000 µg/mL | MIC (E. faecalis ATCC 29212): >1000 µg/mL | MIC [2]: >1000 µg/mL | MIC (B. cereus ATCC 10876): >1000 µg/mL | MIC (B. subtilis ATCC 6633): >1000 µg/mL | MIC (P. aeruginosa ATCC 9027; Gram-negative): >1000 µg/mL | MIC (M. luteus ATCC 10240): 500 µg/mL | MIC (S. aureus ATCC 25923): 1000 µg/mL | MIC (C. albicans ATCC 102231; yeast): >1000 µg/mL | MIC (E. coli ATCC 25922; Gram-negative): >1000 µg/mL | MIC ([7]; yeast): >1000 µg/mL
Compound: [Cl][Zn-2]1([Cl])[n+]2cccc(c2)-c2nc3c(ccc[n+]3[Zn-2]([Cl])([Cl])[n+]3cccc(c3)-c3nc4c(ccc[n+]41)[nH]3)[nH]2 [Complex C3]
IC50 ± SD, CCD-1059-Sk [3]: 30.84 ± 1.11 µg/mL | IC50 ± SD, T98G [4]: 46.54 ± 1.86 µg/mL | IC50 ± SD, A549 [5]: 41.34 ± 2.17 µg/mL | IC50 ± SD, SK-N-AS [6]: 41.60 ± 1.93 µg/mL

Compound: COc1cc([C@@H]2c3cc4c(cc3[C@@H](O[C@@H]3O[C@@H]5CO[C@@H](C)O[C@H]5[C@H](O)[C@H]3O)[C@H]3COC(=O)[C@H]23)OCO4)cc(OC)c1O [Etoposide, reference compound]
IC50 [3]: > 100 µg/mL | median inhibitory concentration (IC50), A549 [8]: 115 µg/mL | IC50 [4]: > 100 µg/mL | IC50 [5]: > 100 µg/mL | IC50 [6]: 67.8 ± 2.03 µg/mL (≈ 115 µM)

MIC (C. glabrata ATCC 2091; Nakaseomyces glabratus, ATCC2091, yeast, read-out: MIC): > 1000 µg/mL | MIC ([1]; Staphylococcus epidermidis, ATCC12228, read-out: MIC): 1000 µg/mL | MIC (P. mirabilis ATCC 12453; Proteus mirabilis, ATCC12453, Gram-negative, read-out: MIC): 1000 µg/mL | MIC (K. pneumoniae ATCC 13883; Klebsiella pneumoniae, ATCC13883, Gram-negative, read-out: MIC): > 1000 µg/mL | MIC (E. faecalis ATCC 29212; Enterococcus faecalis, ATCC29212, read-out: MIC): 1000 µg/mL | MIC ([2]; Salmonella enterica, read-out: MIC): 1000 µg/mL | MIC (B. cereus ATCC 10876; Bacillus cereus, ATCC10876, read-out: MIC): 250 µg/mL | MIC (B. subtilis ATCC 6633; Bacillus subtilis, ATCC6633, read-out: MIC): 500 µg/mL | MIC (P. aeruginosa ATCC 9027; Pseudomonas aeruginosa, ATCC9027, Gram-negative, read-out: MIC): > 1000 µg/mL | MIC (M. luteus ATCC 10240; Micrococcus luteus, ATCC10240, read-out: MIC): 250 µg/mL | MIC (S. aureus ATCC 25923; Staphylococcus aureus, ATCC25923, read-out: MIC): 1000 µg/mL | MIC (C. albicans ATCC 102231; Candida albicans, ATCC102231, yeast, read-out: MIC): 1000 µg/mL | MIC (E. coli ATCC 25922; Escherichia coli, ATCC25922, Gram-negative, read-out: MIC): 1000 µg/mL | MIC ([7]; Lodderomyces parapsilosis, ATCC22019, yeast, read-out: MIC): > 1000 µg/mL
Compound: c1cnc2[nH]c(-c3ccncc3)nc2c1 [Complex L2]
IC50 [3]: > 100 µg/mL | IC50 [4]: 35 ± 1.44 µg/mL | IC50 [5]: 43.1 ± 2.17 µg/mL | IC50 [6]: 81.3 ± 3.31 µg/mL

Compound: C[C@@H]1[C@H](O)[C@@H](C)/C=C/C=C/CC/C=C/C=C/C=C/C=C/C(O[C@H]2O[C@H](C)[C@@H](O)[C@H](N)[C@@H]2O)CC2O[C@](O)(CC(O)C(O)CCC(O)CC(O)CC(O)CC(=O)O[C@H]1C)CC(O)C2C(=O)O (some centres unmarked) [Nys, nystatin, reference compound]
MIC (C. glabrata ATCC 2091; yeast): 0.48 µg/mL (≈ 0.518 µM) | MIC (C. albicans ATCC 102231; yeast): 0.24 µg/mL (≈ 0.259 µM) | MIC ([7]; yeast): 0.24 µg/mL (≈ 0.259 µM)
